Results on one compound are retold here after patent US20250352555A1, “METHOD OF INCREASING IMMUNE CELL ACTIVATION AND/OR TREATING CANCER USING DIBENZOXAZEPINONES” (VASCULAR THERAPEUTICS PTY LTD, priority 2022, published 2025).

One experiment deals with p-ERK. Kind of experiment: Immunohistochemistry of B16F10 tumors (Day 17), p-ERK. In kind it is in vivo, mouse. The note with it: B16F10 tumors Day 17, 200 mg/kg i.p. An excerpt: Immunohistochemical staining and analyses. Rabbit monoclonal anti-CD3 (cat. no. ab16669; mouse, rat and human reactive), rabbit monoclonal anti-PD-1 (cat. no. ab214421), rabbit monoclonal anti-CD68 (cat. no. ab125212) antibodies were obtained from Abcam, rabbit monoclonal anti-phospho-ERK (Thr^202/Tyr^204) (cat. no. CST4370), rabbit monoclonal total ERK (cat. no. CST4695), antibodies were obtained from Cell Signaling Technology. Rabbit polyclonal anti-PD-L1 (cat. no. PA5-20343) antibody was obtained from ThermoFisher.
Formalin fixed, paraffin embedded sections were prepared from tumors. Heat-induced epitope retrieval was applied to all deparaffinized sections (4 μm sections on Superfrost slides) with citrate buffer, pH 6.0 for 5 min at 110° C. […] Integrated optical density (IOD) or area of positive staining (red chromagen) was assessed using Image-Pro Plus software (Cybernetics, Bethesda, MD, USA). Positive staining was the average of quantitation in 4-8 fields of view under 20× or 40× objectives.
To assess the effect of BT2 in the same model, C57BL/6J mice bearing s.c. B16F10 tumors were administered with BT2 or vehicle (200 mg/kg or 20 ml/kg, respectively, i.p.) once a day on a 5 days-on/2 days-off schedule. […] Tumor size on Day 17 measured using callipers (FIG. 10A) correlated with isolated weighed tumors (FIG. 10B).

Another experiment has as its system PD-1. Nature of the experiment: Flow cytometry with anti-PD-1 antibodies, Jurkat T cells. The class given is cell-based, human. The note with it: for inhibition of PD-1 levels: time course (FIG. 17C). As to the method: Flow cytometry with anti-PD-1 antibodies. Jurkat T cells were grown in 6 well plates containing RPMI 1640 and 10% FBS. After 24 h, the cells were treated with various concentrations of BT2 or BT3 for 48 h. Alternatively, the cells were incubated with 3 μM BT2 for various times. After treatment, the cells were washed with PBS, and centrifuged at 300×g for 5 min, and resuspended at 5×10^6 cells/ml. The cells were then incubated with BV421 conjugated mouse anti-human CD279 (PD-1) (BD, cat. no. 562516) or BV421 conjugated mouse IgG1 (BD, cat. no. 562438) for 45 min at 22° C. Cells were then washed twice with 1 ml of Stain Buffer, centrifuged and pellets were resuspended in 0.5 ml Stain Buffer. Stained cell suspensions were analyzed by flow cytometry using a BD FACSCanto (II).
Jurkat T cells express PD-1 (Yi et al., 2023) and are widely used as model human T cells (e.g., Repas et al., 2022). […] BT2's effects were not only dose-dependent but time-dependent. BT2 (3 μM) inhibited PD-1 levels by 50% after 24 h and by 80% after 48 h (FIG. 17C).
In general terms: Flow cytometry measures light scatter and fluorescence of single cells or particles in a stream.

The next experiment has as its system JUN. Kind of experiment: Western blotting time course for JUN, Jurkat T cells. The class given is cell-based, human. The note with it: Western blot time course. As to the method:
(§1) Western blotting. Cells were treated with compounds and times indicated and total cell lysates were prepared in RIPA buffer. Lysates (10 μg) were resolved by SDS-PAGE and transferred to Immobilon-P polyvinylidene difluoride (PVDF) membranes (Millipore, USA).
(§2) Membranes were blocked with 5% skim milk and incubated with rabbit monoclonal anti-c-Jun (Abcam, cat. no. ab32137; mouse, rat and human reactive) antibody, rabbit monoclonal anti-PD-1 (Abcam, cat. no. ab214421) antibody, mouse monoclonal β-actin antibody (Sigma-Aldrich, cat. no. A5316), anti-phospho-SAPK/JNK (Thr^183/Tyr^185) (98F2) (CST, cat. no. 4671) antibody, anti-phospho-p44/42 MAPK (ERK1/2) (Thr^202/Tyr^204) (D13.14.4E) (CST, cat. no. 4370) antibody, anti-phospho-p38 MAPK (Thr^180/Tyr^182) (D3F9) (CST, cat. no. 4511) antibody, anti-SAPK/JNK antibody (CST, cat. no. 9252), anti-p44/42 MAPK (ERK1/2) (137F5) antibody (CST, cat. no. 4695), anti-p38 MAPK antibody (CST, cat. no. 9212), anti-DUSP8 antibody (Abcam, cat. no. ab198175) or anti-c-MAF (BLR045F) antibody (Abcam, cat. no. ab243901). […] Chemiluminescence was detected using the Western Lightning Chemiluminescence system (Thermo Scientific, USA) and ImageQuant™ LAS 4000 biomolecular imager (GE Healthcare Life Sciences, USA). Band intensity in images generated with the LAS 4000 was quantified using NIH Image J. […]
(In general: Immunoblotting shows a protein as a band on a membrane.)

A further experiment deals with p38. Nature of the experiment: Western blotting time course for p38 phosphorylation, Jurkat T cells. The note with it: Western blot time course. The class given is cell-based, human. As to the method:
as §1, §2

Molecules are shown by their SMILES.

With `CCOC(=O)Nc1ccc2c(c1)C(=O)N(CC)c1ccccc1O2` [BT2, (10-ethyl-11-oxo-10,11-dihydro-dibenzo[b,f][1,4]oxazepin-2-yl)-carbamic acid ethyl ester], in the experiment on p-ERK, the “ERK phosphorylation in tumors (IHC)” value is “suppression of ERK phosphorylation”. Further, the “reduction of PD-1 expression” value in the experiment on PD-1 (0.1 μM, 48 h (FIG. 17A)) stood at 50%; in the experiment with PD-1 (3 μM, 48 h, dose response (FIG. 17A)) it was 80%. The “inhibition of PD-1 levels” value with PD-1 (3 μM, 24 h) was 50%; in the experiment with PD-1 (3 μM, 48 h), 80%. In the experiment on JUN, the “time to induction of JUN at the protein level” value lay within 2 to 4 h. In the experiment on p38, the “levels of p38 phosphorylation” value is “no effect”.
